Results on one molecule are retold here after patent publication US20230212222A1 (ANYGEN CO., LTD., priority 2020, published 2023).

For the test, the system named is Irs2 and Ins2. Put plainly: mRNA expression levels of Irs2 and Ins2 by RT-PCR. Format: cell-based. The procedure:
The mRNA expression levels of Irs2 and Ins2, which are important factors for proliferation and differentiation of pancreatic beta cells, were analyzed through RT-PCR (FIG. 77).

On to `CCCCCCCC(=O)NCCCC[C@H](NC(=O)[C@@H](N)Cc1cn(C(c2ccccc2)c2ccccc2)cn1)C(=O)N[C@H](Cc1ccc(C)cc1)C(=O)N[C@@H](Cc1ccc(O)cc1)C(=O)O` [HKFY-34, ((R)-2-((S)-2-((S)-2-amino-3-(1-benzhydryl-1H-imidazol-4-yl)propanamido)-6-octanamidohexanamido)-3-(p-tolyl)propanoyl)-L-tyrosine], for which, under “GPR39 siRNA treated group”, the “mRNA expression of Ins2” value is “hardly achieved” and the “mRNA expression of Irs2” value was “hardly achieved”. Moreover, under “RT-PCR, FIG. 77”, the “mRNA expression level of Ins2” value was “increased” and the “mRNA expression level of Irs2” value was “increased”.
